According to ChEMBL document CHEMBL6096642 (Eur J Med Chem, 2025):
The source made the active and inactive calls. The calls are words filed in the database; no cut-off is given here.

What was measured:
[1] = biological target: Aldo-keto reductase family 1 member B1 (Rattus norvegicus, UniProt P07943); assay: Inhibition of male Wistar rat lens ALR2 using D,L-glyceraldehyde as substrate assessed as NADPH consumption by spectrophotometric analysis
[2] = biological target: Aldo-keto reductase family 1 member B1 (Rattus norvegicus) (UniProt P07943); assay: Inhibition of male Wistar rat lens ALR2 using D,L-glyceraldehyde as substrate assessed as NADPH consumption at 1 uM by spectrophotometric analysis relative to control
[3] = biological target: T1, Tyrosine-protein phosphatase non-receptor type 1 (Homo sapiens) (UniProt P18031); assay: Inhibition of polyhis-tagged recombinant human PTP1B (1 to 303 residues) extracted from Escherichia coli BL21 (DE3) pLysS using p-nitro-phenyl phosphate as substrate at 10 uM preincubated for 15 mins followed by substrate addition and measured after 15 mins by absorbance based analysis relative to control; settings: time 30.0 min
T1 sequence (whole entry): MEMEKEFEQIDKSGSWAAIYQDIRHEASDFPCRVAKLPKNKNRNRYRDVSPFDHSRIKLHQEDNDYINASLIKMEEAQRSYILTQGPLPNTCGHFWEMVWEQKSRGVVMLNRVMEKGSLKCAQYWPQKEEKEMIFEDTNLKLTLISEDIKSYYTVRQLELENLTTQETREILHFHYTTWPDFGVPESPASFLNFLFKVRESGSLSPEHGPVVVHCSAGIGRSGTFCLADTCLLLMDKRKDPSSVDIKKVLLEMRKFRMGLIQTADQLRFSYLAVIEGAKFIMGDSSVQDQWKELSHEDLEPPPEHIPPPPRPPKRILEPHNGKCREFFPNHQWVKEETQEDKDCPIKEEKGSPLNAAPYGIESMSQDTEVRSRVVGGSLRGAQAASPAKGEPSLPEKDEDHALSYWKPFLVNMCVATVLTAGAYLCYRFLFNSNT

[4] = biological target: T2, Aldo-keto reductase family 1 member A1 (Rattus norvegicus, UniProt P51635); assay: Inhibition of male Wistar rat kidney ALR1 using D-glucuronate as substrate assessed as NADPH consumption by spectrophotometric analysis
T2 sequence (P51635 whole entry): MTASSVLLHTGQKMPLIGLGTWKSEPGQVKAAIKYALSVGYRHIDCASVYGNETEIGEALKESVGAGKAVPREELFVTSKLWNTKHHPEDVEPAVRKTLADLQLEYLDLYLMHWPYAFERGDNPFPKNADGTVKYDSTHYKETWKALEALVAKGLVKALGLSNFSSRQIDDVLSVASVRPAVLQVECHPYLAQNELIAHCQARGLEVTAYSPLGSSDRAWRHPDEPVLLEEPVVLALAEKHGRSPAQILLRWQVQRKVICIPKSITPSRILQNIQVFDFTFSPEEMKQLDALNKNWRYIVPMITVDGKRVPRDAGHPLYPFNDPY

[5] = biological target: Aldo-keto reductase family 1 member B1 (Rattus norvegicus) (UniProt P07943); assay: Inhibition of male Wistar rat lens ALR2 using D,L-glyceraldehyde as substrate assessed as NADPH consumption at 10 uM by spectrophotometric analysis relative to control
[6] = biological target: T1, Tyrosine-protein phosphatase non-receptor type 1 (Homo sapiens); assay: Inhibition of polyhis-tagged recombinant human PTP1B (1 to 303 residues) extracted from Escherichia coli BL21 (DE3) pLysS using p-nitro-phenyl phosphate as substrate at 50 uM preincubated for 15 mins followed by substrate addition and measured after 15 mins by absorbance based analysis relative to control; settings: time 30.0 min
Rattus norvegicus [7] = species: Rattus norvegicus; assay: Selectivity index, ratio of IC50 for male Wistar rat kidney ALR1 using D-glucuronate as substrate to IC50 for male Wistar rat lens ALR2 using D,L-glyceraldehyde as substrate
[8] = Selectivity index, ratio of IC50 for TCPTP (unknown origin) extracted from Escherichia coli BL21 TB1 using p-nitro-phenyl phosphate as substrate to IC50 for human PTP1B extracted from Escherichia coli BL21 TB1 using p-nitro-phenyl phosphate as substrate
C2C12 [9] = assay: Reduction in maximal respiration rate in mouse C2C12 cells assessed as decrease in coupling efficiency at 25 uM incubated for 24 hrs by Seahorse XF cell mito stress analysis; assay type: functional, cell-based
C2C12 [10] = assay: Effect on couple efficiency in mouse C2C12 cells assessed as decrease in coupling efficiency at 25 uM incubated for 24 hrs by Seahorse XF cell mito stress analysis; assay type: functional, cell-based
C2C12 [11] = assay: Induction of glucose uptake in mouse C2C12 cells assessed as decrease in glucose concentration in cell culture medium at 25 to 50 uM incubated for 24 hrs by BGSTAR glucometric analysis; assay type: functional, cell-based; settings: dose 25-50 µM
C2C12 [12] = assay: Cytotoxicity against mouse C2C12 cells assessed as reduction in cell viability at 1 uM measured after 48 hrs by MTT assay; assay type: toxicity, cell-based; settings: c2c12, 48 h
C2C12 [13] = assay: Induction of mitochondrial uncoupling activity in mouse C2C12 cells assessed as decrease in sparse capacity at 25 uM incubated for 30 mins by Seahorse XF cell mito stress analysis; assay type: functional, cell-based
C2C12 [14] = assay: Enhancement of […] glucose uptake in mouse C2C12 cells assessed as increase in 2-NDBG uptake at 25 to 50 uM preincubated for 30 mins followed by insulin addition and measure after 30 mins by flow cytometric analysis; assay type: functional, cell-based; settings: dose 25-50 µM, time 60.0 min
[15] = biological target: T3, Tyrosine-protein phosphatase non-receptor type 2 (Homo sapiens, UniProt P17706); assay: Inhibition of polyHis-tagged recombinant human TCPTP (1 to 415 residues) extracted from Escherichia coli BL21 (DE3) pLysS using p-nitro-phenyl phosphate as substrate assessed as substrate hydrolysis by measuring p-nitrophenolate release by absorbance based analysis
T3 sequence (P17706 whole entry): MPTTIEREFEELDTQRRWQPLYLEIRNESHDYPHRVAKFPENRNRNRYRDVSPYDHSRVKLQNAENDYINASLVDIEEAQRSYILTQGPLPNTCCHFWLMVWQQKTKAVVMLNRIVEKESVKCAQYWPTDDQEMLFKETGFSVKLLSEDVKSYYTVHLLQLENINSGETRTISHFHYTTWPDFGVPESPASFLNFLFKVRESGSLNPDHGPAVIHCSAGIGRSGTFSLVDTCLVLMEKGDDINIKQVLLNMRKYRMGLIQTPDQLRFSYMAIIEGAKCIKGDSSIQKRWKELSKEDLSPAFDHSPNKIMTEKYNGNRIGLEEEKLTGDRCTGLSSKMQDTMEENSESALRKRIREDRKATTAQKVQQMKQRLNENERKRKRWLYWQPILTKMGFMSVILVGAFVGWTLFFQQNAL

C2C12 [16] = assay: Induction of mitochondrial uncoupling activity in mouse C2C12 cells assessed as decrease in coupling efficiency at 25 uM incubated for 30 mins by Seahorse XF cell mito stress analysis; assay type: functional, cell-based
[17] = biological target: T1, Tyrosine-protein phosphatase non-receptor type 1 (Homo sapiens); assay: Irreversible inhibition of polyhis-tagged recombinant human PTP1B (1 to 303 residues) extracted from Escherichia coli BL21 (DE3) pLysS at 200 uM incubated for 1 hrs and measured after dilution
C2C12 [18] = assay: Reduction of mitochondrial mass in mouse C2C12 cells at 25 uM incubated for 72 hrs by Mitotracker green based flow cytometric analysis; assay type: functional, cell-based
C2C12 [19] = assay: Effect on mitochondrial mass in mouse C2C12 cells at 25 uM incubated for 72 hrs by Mitotracker green based flow cytometric analysis; assay type: functional, cell-based
C2C12 [20] = assay: Induction of mitochondrial uncoupling activity in mouse C2C12 cells assessed as increase in proton leak at 25 uM incubated for 30 mins by Seahorse XF cell mito stress analysis; assay type: functional, cell-based
C2C12 [21] = assay: Induction of glucose uptake in mouse C2C12 cells assessed as increase in 2-NDBG uptake at 25 to 50 uM incubated for 30 mins by flow cytometric analysis; assay type: functional, cell-based; settings: dose 25-50 µM
C2C12 [22] = assay: Effect on basal respiration rate in mouse C2C12 cells assessed as decrease in coupling efficiency at 25 uM incubated for 30 mins by Seahorse XF cell mito stress analysis; assay type: functional, cell-based
C2C12 [23] = assay: Induction of Akt phosphorylation in mouse C2C12 cells at 25 uM incubated for 30 mins in presence of insulin by Western blot analysis; assay type: cell-based
C2C12 [24] = assay: Reduction in oxygen-dependent ATP production in mouse C2C12 cells assessed as decrease in coupling efficiency at 25 uM incubated for 24 hrs by Seahorse XF cell mito stress analysis; assay type: functional, cell-based
C2C12 [25] = assay: Effect on sparse capacity in mouse C2C12 cells assessed as decrease in coupling efficiency at 25 uM incubated for 24 hrs by Seahorse XF cell mito stress analysis; assay type: functional, cell-based
[26] = biological target: T4, Tyrosine-protein phosphatase non-receptor type 1 (Homo sapiens, UniProt P18031); assay: Inhibition of polyhis-tagged recombinant human PTP1B (1 to 303 residues) extracted from Escherichia coli BL21 (DE3) pLysS using p-nitro-phenyl phosphate as substrate assessed as substrate hydrolysis by measuring p-nitrophenolate release by absorbance based analysis
T4 sequence (P18031 whole entry): T1 sequence (whole entry)

C2C12 [27] = assay: Induction of Akt phosphorylation in mouse C2C12 cells at 25 uM incubated for 30 mins by Western blot analysis; assay type: cell-based
C2C12 [28] = assay: Induction of mitochondrial uncoupling activity in mouse C2C12 cells assessed as decrease in oxygen-dependent ATP production at 25 uM incubated for 30 mins by Seahorse XF cell mito stress analysis; assay type: functional, cell-based
C2C12 [29] = assay: Effect on maximal respiration rate in mouse C2C12 cells assessed as decrease in coupling efficiency at 25 uM incubated for 30 mins by Seahorse XF cell mito stress analysis; assay type: functional, cell-based
Mitochondrial membrane = assay: Induction of mitochondrial membrane potential loss in mouse C2C12 cells at 25 uM incubated for 0.5 to 50 hrs by TMRE probe based flow cytometric analysis; settings: time 0.5-50 hrs
C2C12 [30] = assay: Reduction in basal respiration rate in mouse C2C12 cells assessed as decrease in coupling efficiency at 25 uM incubated for 24 hrs by Seahorse XF cell mito stress analysis; assay type: functional, cell-based
C2C12 [31] = assay: Reduction in proton leak in mouse C2C12 cells assessed as decrease in coupling efficiency at 25 uM incubated for 24 hrs by Seahorse XF cell mito stress analysis; assay type: functional, cell-based
Homo sapiens = species: Homo sapiens; assay: Selectivity index, ratio of IC50 for polyHis-tagged recombinant human TCPTP (1 to 415 residues) extracted from Escherichia coli BL21 (DE3) pLysS using p-nitro-phenyl phosphate as substrate to IC50 for polyhis-tagged recombinant human PTP1B (1 to 303 residues) extracted from Escherichia coli BL21 (DE3) pLysS using p-nitro-phenyl phosphate as substrate
C2C12 [32] = assay: Effect on mitochondrial mass in mouse C2C12 cells at 25 to 50 uM incubated for 72 hrs by Mitotracker green based flow cytometric analysis; assay type: functional, cell-based; settings: dose 25-50 µM
Rattus norvegicus [33] = species: Rattus norvegicus; assay: Selectivity index, ratio of IC50 for rat kidney ALR1 to IC50 for rat lens ALR2
[34] = biological target: T2, Aldo-keto reductase family 1 member A1; assay: Inhibition of rat kidney ALR1; assay type: tissue-based

O=C(O)CN1C(=O)S/C(=C\c2cn(Cc3ccc(F)cc3)c3ccccc23)C1=O
IC50 [1]: 0.018 µM | inhibition [2]: > 70% | inhibition [3]: 0% | IC50 [4]: 14.2 µM | inhibition [5]: > 92% | inhibition [6]: 90.8% | Ratio IC50 (Rattus norvegicus [7]): 787

O=c1c(O)c(-c2ccc(O)cc2O)oc2cc(O)cc(O)c12
Ratio IC50 [8]: 1.3 | inhibition [3]: 34.5% | inhibition [6]: 95.2%

O=C(O)CN1C(=O)S/C(=C\c2cn(Cc3ccc(Cl)cc3Cl)c3ccccc23)C1=O
Activity (C2C12 [9]): Active | Activity (C2C12 [10]): inactive | Activity (C2C12 [11]): Active | Activity (C2C12 [12]): Toxic | Activity (C2C12 [13]): Active | Activity (C2C12 [14]): inactive | IC50 [1]: 0.289 µM | IC50 [15]: 37.8 µM | inhibition [2]: > 70% | Activity (C2C12 [16]): Active | inhibition [17]: Active | Activity (C2C12 [18]): Active | Activity (C2C12 [19]): inactive | Activity (C2C12 [20]): Active | inhibition [3]: 28.1% | Activity (C2C12 [21]): Active | Activity (C2C12 [22]): inactive | Activity (C2C12 [23]): Not active; Compound Acted Neither As An Insulin Mimetic Nor A Sensitizing Agent | Activity (C2C12 [24]): Active | Activity (C2C12 [25]): inactive | IC50 [26]: 21.3 µM | Activity (C2C12 [27]): Not active; Compound Acted Neither As An Insulin Mimetic Nor A Sensitizing Agent | Activity (C2C12 [28]): Active | IC50 [4]: > 15 µM | inhibition [5]: > 92% | Activity (C2C12 [29]): inactive | Activity (Mitochondrial membrane): Active; Compound Targets Mitochondria As An Uncoupling Agent | Activity (C2C12 [30]): Active | Activity (C2C12 [31]): Active | inhibition [6]: 62.8% | Ratio IC50 (Homo sapiens): 1.8 | Ratio IC50 (Rattus norvegicus [7]): > 52

CN(C)C(=N)NC(=N)N
Activity (C2C12 [32]): inactive

Cc1ccc(CN2C(=O)C(C(C#N)C(=O)O)c3cc(F)ccc32)cc1 (stereo not given)
Ratio IC50 (Rattus norvegicus [33]): 16

CC(/C=C1\SC(=S)N(CC(=O)O)C1=O)=C\c1ccccc1
IC50 [34]: 2.14 µM | IC50 [4]: 2.37 µM

O=C(O)CN1C(=O)S/C(=C\c2cn(Cc3ccc(Br)cc3F)c3ccccc23)C1=O
IC50 [1]: 0.187 µM | inhibition [2]: > 70% | inhibition [3]: 0% | IC50 [26]: > 50 µM | IC50 [4]: > 15 µM | inhibition [5]: > 92% | inhibition [6]: 4.4% | Ratio IC50 (Rattus norvegicus [7]): > 80

O=C(O)CN1C(=O)S/C(=C\c2cn(Cc3ccccc3)c3ccccc23)C1=O
IC50 [1]: 0.026 µM | IC50 [15]: 47.1 µM | inhibition [2]: > 70% | inhibition [17]: Active | inhibition [3]: 18.3% | IC50 [26]: 42.8 µM | IC50 [4]: 7.54 µM | inhibition [5]: > 92% | inhibition [6]: 49.6% | Ratio IC50 (Homo sapiens): 1.1 | Ratio IC50 (Rattus norvegicus [7]): 290
